One block for each compound: values may come before it. Where no end group is shown, it is not given here.
Tests used:
nasal mucous membrane = test: Nasal administration of 3H-mannitol with or without peptide to rats; mannitol concentration in blood (mucous membrane permeability); details: nasal, rats, peptide 2.5 mg/kg
Experimental: (§1) Male SD (Sprague-Dawley) rats (280-300 g) were provided to adapt to each separate cage of the animal facility at least 2 days. At this point, foods and water were freely allowed to the rats, which were exposed to light for 12 hours and kept in dark for another 12 hours. One day before the testing, the rats were provided with water only and kept from eating food.
(§2) The peptides of the Preparation Examples or the Example, and mannitol(^3H-Mannitol, 14.2 Ci/mmol, PerkinElmer) were used to prepare the individual preparation groups given as follows:
(§3) The first preparation group was a control group and prepared as an aqueous solution of 5% (w/v) dextrose containing mannitol without a peptide.
(§4) The second preparation group was prepared as an aqueous solution of 5% (w/v) dextrose containing mannitol and the FCIGRL peptide of the Preparation Example 1.
(§5) The third preparation group was prepared as an aqueous solution of 5% (w/v) dextrose containing mannitol and the Ac-FCIGRL peptide of the Preparation Example 2.
(§6) The fourth preparation group was prepared as an aqueous solution of 5% (w/v) dextrose containing mannitol and the FCIGRL-NH2 peptide of the Example 1.
(§7) The male SD rats provided above 1. were divided into four groups, each having five male SD rats. The first to fourth preparation groups were nasally administered into the first to fourth rat groups, respectively.
(§8) At this point, the dosage of each solution was 70 μl per rat, where the dosages of mannitol and each peptide were 20 μCi/kg and 2.5 mg/kg, respectively.
(§9) Prior to the nasal administration, each rat was anesthetized to implant a cannula into the jugular vein of it. The solution was taken into the nostrils of the rat through a micropipette (Eppendorf) with caution as not to affect the nasal mucous membrane, while the rat was lying on the back to rest its head sideways against the wall.
(§10) 250 μl of blood was collected from each rat in 10, 20, 40, 60, 120, 180, 240 and 360 minutes after administration of the solution through jugular vein cannulation. The blood was subjected to centrifugal separation at 13,000 rpm for 10 minutes to obtain 100 μl of plasma. A scintillation cocktail solution was added to the plasma. Then, an LS6500 Universal counter (Beckman Coulter, Brea, Calif., USA) was used to measure the radiation quantity for the quantitative analysis of mannitol.
(§11) The mannitol concentration in blood from the rats of each group is graphed in FIG. 1. Table 1 presents the pharmacokinetic parameters, that is, AUC, Cmax, Tmax, and T1/2 of mannitol.

[1] = buffer solution that is slightly acid (pH 5.0), neutral, and basic; cited from earlier work
in vivo = details: male, Sprague-Dawley, rat, in vivo, inhaled or intranasal, 2.5 mg/kg
Experimental: as §1, §2, §3, §4, §5, §6, §7, §8, §9, §10, §11

[2] = preparation group containing mannitol and the peptide, for nasal administration

Compound: H-FCIGRL-OH [FCIGRL, Phe-Cys-Ile-Gly-Arg-Leu]
difference in the blood mannitol concentration versus mannitol alone (nasal mucous membrane): no significant difference
maintenance of the intact form of peptide over time [1]: cannot maintain the intact form of peptide over time

AUC(0-t) (in vivo): 0.101 ng·h/mL
Cmax (in vivo): 0.0306 ± 0.00602 ng/mL
Tmax (in vivo): 0.583 h
half-life (in vivo): 3.59 ± 0.0515 h
Compound: OC[C@@H](O)[C@@H](O)[C@H](O)[C@H](O)CO [Mannitol, mannitol]

Compound: Ac-FCIGRL-NH2 [Ac-FCIGRL-NH2]
solubility of the peptide [2]: such a low solubility of the peptide as to make nasal administration of the peptide impossible

Compound: FCIGRL-NH2 [FCIGRL-NH2]
AUC0-360min of mannitol relative to the administration group of mannitol alone (nasal mucous membrane; p<0.01): 3.63 times
Cmax of mannitol relative to the administration group of mannitol alone (nasal mucous membrane; p<0.01): 2.68 times

Compound: Ac-FCIGRL [Ac-FCIGRL]
difference in the blood mannitol concentration versus mannitol alone (nasal mucous membrane): no significant difference
